ChEMBL document CHEMBL1201862, “PubChem BioAssay data set” (2004)
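Results reflect a 48-hour exposure of cells in 96-well plates to compound at five concentrations. GI50 is the concentration that inhibits growth by half.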 The source made the active and inactive calls. Cut-off read from the data, not from the text of the source: active = GI50 up to about 1.1 µM and inactive = higher. Non-standard residues stand in square brackets, D forms with d. Residues, ends and D or L forms follow the SMILES beside them.

How the values were obtained:
Test in all cases: NCI anticancer screen, dose series, 48 h
[1] = tested on: A498
[2] = tested on: HOP-92
[3] = tested on: NCI-H226
[4] = tested on: NCI-H23
[5] = tested on: SF-539
[6] = tested on: NCI/ADR-RES
[7] = tested on: CCRF-CEM
[8] = tested on: MDA-MB-435
[9] = tested on: U-251
[10] = tested on: SK-MEL-5
[11] = tested on: SR
[12] = tested on: RPMI-8226
[13] = tested on: 786-0
[14] = tested on: ACHN
[15] = tested on: MOLT-4
[16] = tested on: SK-OV-3
[17] = tested on: TK-10
[18] = tested on: HT-29
[19] = tested on: SF-268

Structure (SMILES) | GI50 [1] | GI50 [2] | GI50 [3] | GI50 [4] | GI50 [5] | GI50 [6] | GI50 [7] | GI50 [8] | GI50 [9] | GI50 [10] | GI50 [11] | GI50 [12] | GI50 [13] | GI50 [14] | GI50 [15] | GI50 [16] | GI50 [17] | GI50 [18] | GI50 [19]
N[C@@H]1C[C@H](N)c2c(Cl)sc(Cl)c21 | 61.5 µM (inactive) | > 100 µM (inactive) | > 100 µM (inactive) | > 100 µM (inactive) | > 100 µM (inactive) | > 100 µM (inactive) | > 100 µM (inactive) | > 100 µM (inactive) | > 100 µM (inactive) | > 100 µM (inactive) | > 100 µM (inactive) | > 100 µM (inactive) | > 100 µM (inactive) | > 100 µM (inactive) | > 100 µM (inactive) | – | – | – | –
COC(=O)CC1CN(C(=O)OCc2ccccc2)C(C)(C)O1 (stereo unspecified) | > 100 µM (inactive) | 94.6 µM (inactive) | 2 µM (inactive) | 28.8 µM (inactive) | > 100 µM (inactive) | > 100 µM (inactive) | > 100 µM (inactive) | > 100 µM (inactive) | > 100 µM (inactive) | 44.6 µM (inactive) | > 100 µM (inactive) | 81.3 µM (inactive) | > 100 µM (inactive) | > 100 µM (inactive) | 80.2 µM (inactive) | > 100 µM (inactive) | 56.9 µM (inactive) | – | –
CC1NC(=O)CC(c2ccccc2)N(N=O)C1c1ccccc1 (stereo unspecified) | 8.89 µM (inactive) | 16.9 µM (inactive) | 58.5 µM (inactive) | 36.2 µM (inactive) | 23.4 µM (inactive) | 25.2 µM (inactive) | 23.8 µM (inactive) | – | 39.6 µM (inactive) | 28.6 µM (inactive) | – | 26.5 µM (inactive) | – | – | 31.4 µM (inactive) | 22.8 µM (inactive) | – | 29.7 µM (inactive) | 31.8 µM (inactive)
Cc1noc(/N=C2\C=C(Nc3onc(C)c3C)C(=O)c3ccccc32)c1C | > 100 µM (inactive) | > 100 µM (inactive) | > 100 µM (inactive) | 27.5 µM (inactive) | > 100 µM (inactive) | – | > 100 µM (inactive) | – | 46.1 µM (inactive) | 15.6 µM (inactive) | 24.3 µM (inactive) | 25.1 µM (inactive) | > 100 µM (inactive) | > 100 µM (inactive) | > 100 µM (inactive) | > 100 µM (inactive) | > 100 µM (inactive) | > 100 µM (inactive) | 86.3 µM (inactive)
CCOC(=O)Cc1csc2[n+]1C(=O)/C(=C/c1cccc(OC)c1O)S2 | – | 93.8 µM (inactive) | > 100 µM (inactive) | 33.7 µM (inactive) | 60.8 µM (inactive) | 47 µM (inactive) | – | 11.9 µM (inactive) | 0.192 µM (active) | 42.9 µM (inactive) | – | – | 68.7 µM (inactive) | 69.5 µM (inactive) | 4.43 µM (inactive) | > 100 µM (inactive) | 46.2 µM (inactive) | 39 µM (inactive) | –
CC(C)C[C@H](NC(=O)[C@H](CC(C)C)NC(=O)[C@@H](Cc1c[nH]c2ccccc12)NC(=O)[C@H](Cc1ccccc1)NC(=O)[C@@H](Cc1c[nH]c2ccccc12)NC(=O)[C@H](CCC(N)=O)NC(=O)[C@H](CCC(N)=O)NC(=O)[C@H]1CCCN1C(=O)[C@@H](N)CCCCN)C(N)=O (H-K[dP]QQ[dW]F[dW]LL-NH2) | > 100 µM (inactive) | > 100 µM (inactive) | > 100 µM (inactive) | > 100 µM (inactive) | > 100 µM (inactive) | > 100 µM (inactive) | > 100 µM (inactive) | – | > 100 µM (inactive) | > 100 µM (inactive) | – | > 100 µM (inactive) | – | – | > 100 µM (inactive) | > 100 µM (inactive) | – | > 100 µM (inactive) | > 100 µM (inactive)
